System: normal human dermal fibroblast cultures
Assay: Incorporation of radioactive (tritiated) thymidine into normal human dermal fibroblast cultures (fibroblast proliferation)
Format: cell-based
Conditions: for % (thymidine incorporation relative to untreated control = 100) / cpm (counts per minute), tritiated thymidine incorporated: 48 hours contact, 24 hours labeling, EGF 1.67 × 10^−3 μM, vitamin C 20 μM, resveratrol 5 μM, or 5 μM resveratrol + 20 μM vitamin C; for cpm (counts per minute), tritiated thymidine incorporated: untreated control 10320; for %, difference relative to the untreated control / cpm, difference relative to the untreated control: same treatments, value in brackets
Experimental: The study has carried out by measuring the incorporation of radioactive thymidine into normal human dermal fibroblast cultures.
The fibroblast cultures were prepared according to the standard methods of cell culturing, i.e., in MEM/M199 medium marketed by Gibco, in the presence of sodium bicarbonate (1.87 mg/ml), L-glutamine (2 mM), penicillin (50 IU/ml) and 10% foetal calf serum (Gibco).
The test was carried out on cell cultures at 80% of confluence on 24-well plates. Resveratrol, at a concentration of 1.25 μM and 5 μM, was placed in contact with the cells for 48 hours. Labeling with tritiated thymidine ([methyl-3H] thymidine marketed by Amersham, 82 Ci/mmol) was carried out for 24 hours.
The level of tritiated thymidine incorporated was measured at the end of the test by acidic precipitation of the proteins on filters and counting by liquid scintillation.
The results were evaluated relative to a control consisting of cells which had not been treated.
A positive control [EGF: Epidermal Growth Factor] at 1.67×10^−3 μM, which was known to stimulate fibroblast proliferation, was introduced into the test by way of reference.

Row | Compound | % (thymidine incorporation relative to untreated control = 100) [%] | cpm (counts per minute), tritiated thymidine incorporated [cpm] | %, difference relative to the untreated control | cpm, difference relative to the untreated control
1 | Oc1ccc(C=Cc2cc(O)cc(O)c2)cc1 [resveratrol, 3,4′,5-Trihydroxystilbene] | 110 | 11365 | +10% | (+1045) cpm
2 | O=C1O[C@H]([C@@H](O)CO)C(O)=C1O [vitamin C, ascorbic acid] | 132 | 13595 | +32% | (+3275) cpm
3 | EGF: Epidermal Growth Factor, positive control known to stimulate fibroblast proliferation | 283 | 29214 | +183% | (+18894) cpm
